The source made the active and inactive calls. The calls are words filed in the database; no cut-off is given here.
Assays:
MGC-803 [1] = assay: Induction of cell cycle arrest in human MGC-803 cells assessed as accumulation of cells at G2/M phase incubated for 48 hrs by PI staining based flow cytometry analysis; type: functional; settings: dose 0.25-1 µM
MGC-803 [2] = assay: Antiproliferative activity against human MGC-803 cells assessed as inhibition of cell growth incubated for 72 hrs by MTT assay; type: functional, cell-based; settings: MGC-803, 72 h
MGC-803 [3] = assay: Inhibition of cell migration in human MGC-803 cells incubated for 24 hrs by microscopic analysis; type: functional, cell-based; settings: dose <= 1.0 µM
MGC-803 [4] = assay: Induction of apoptosis in human MGC-803 cells assessed as early apoptotic cells at 1 uM incubated for 48 hrs by Annexin V-FITC/PI staining based flow cytometry analysis (reference value: 0.30%); type: functional
MGC-803 [5] = assay: Antitumor activity against human MGC-803 cells xenografted in BALB/c mouse assessed as inhibition of tumor growth at 25 to 50 mg/kg, IG administered for 14 days; type: functional, organism-based; settings: dose 25-50 mg/kg, time 14.0 day
MGC-803 [6] = assay: Induction of apoptosis in human MGC-803 cells assessed as necrotic cells at 4 uM incubated for 48 hrs by Annexin V-FITC/PI staining based flow cytometry analysis (reference value: 0.83%); type: functional
MGC-803 [7] = assay: Antiproliferative activity against human MGC-803 cells assessed as reduction in clone areas incubated for 48 hrs […]; type: functional, cell-based; settings: dose <= 2.0 µM
MGC-803 [8] = assay: Antiproliferative activity against human MGC-803 cells assessed as inhibition of cell growth incubated for 24 to 48 hrs by MTT assay; type: functional, cell-based
MGC-803 [9] = assay: Induction of apoptosis in human MGC-803 cells assessed as late apoptotic cells at 1 uM incubated for 48 hrs by Annexin V-FITC/PI staining based flow cytometry analysis (reference value: 0.98%); type: functional
MGC-803 [10] = assay: Downregulation of c-FOS level in human MGC-803 cells at 4 uM incubated for 24 hrs by immunoblotting analysis; type: functional, cell-based
MGC-803 [11] = assay: Induction of apoptosis in human MGC-803 cells assessed as downregulation of […] expression at 1 to 4 uM incubated for 24 hrs by Western blot analysis; type: functional, cell-based; settings: dose 1-4 µM
[12] = Toxicity in BALB/c mouse implanted with human MGC-803 cells assessed as body weight loss at 25 to 50 mg/kg, IG; type: organism-based; settings: in vivo, po, dose 25-50 mg/kg
MGC-803 [13] = assay: Induction of apoptosis in human MGC-803 cells assessed as early apoptotic cells at 4 uM incubated for 48 hrs by Annexin V-FITC/PI staining based flow cytometry analysis (reference value: 0.30%); type: functional
MGC-803 [14] = assay: Induction of apoptosis in human MGC-803 cells assessed as necrotic cells at 1 uM incubated for 48 hrs by Annexin V-FITC/PI staining based flow cytometry analysis (reference value: 0.83%); type: functional
MGC-803 [15] = assay: Downregulation of ACAT2 mRNA level in human MGC-803 cells at 4 uM incubated for 24 hrs by RT-qPCR analysis; type: functional, cell-based

- IC50 (MGC-803 [2]): 2.87 µM
- IC50 (MGC-803 [8]): 3.56 µM
Structure (SMILES): C=C1CC[C@@H]2[C@](C)(CO)[C@H](O)CC[C@@]2(C)[C@@H]1/C=C/C1=CC(=C/c2ccc(C)cc2)/NC1=O
- Activity (MGC-803 [1]): Dose-dependent-effect
- inhibition (MGC-803 [3]): Dose-dependent-effect
- Activity (MGC-803 [4]): 0.44%
- TGI (MGC-803 [5]): Active
- Activity (MGC-803 [6]): 4.54%
- Activity (MGC-803 [7]): Dose-dependent-effect
- Activity (MGC-803 [9]): 15.1%
- Activity (MGC-803 [10]): Active
- Activity (MGC-803 [11]): Active
- Activity [12]: Non-toxic
- Activity (MGC-803 [13]): 12.4%
- Activity (MGC-803 [14]): 12.6%
- Activity (MGC-803 [15]): Active

From ChEMBL document CHEMBL6153084, “The development of α, β-unsaturated lactam-based andrographolide derivatives as anti-gastric cancer agents with the ability of inhibiting the ERK/c-Fos/Jun pathway” (Eur J Med Chem, 2025)
